Laboratory results taken from patent US10385022B2, “3-amino-pyridines as GPBAR1 agonists” (HOFFMANN-LA ROCHE INC., priority 2011, dated 2019).

target: human GPBAR1 receptor (Homo sapiens (Human), UniProt Q8TDU6); assay: functional cAMP assay in CHO-dhfr(minus) cells expressing human GPBAR1 receptors; format: cell-based; conditions: CHO-dhfr(minus) cells expressing human GPBAR1, 30 min at 30° C.
Protocol: The final clone was verified by DNA sequence analysis. The plasmid was transfected into CHO cells deficient in dihydrofolate reductase activity (CHO-dhfr-) using Lipofectamine plus (Invitrogen). Clones were isolated in limited dilution conditions and identified by activities in the cAMP assay using lithocholic acid as agonist.
EC50 values were determined using Activity Base analysis (ID Business Solution, Limited). […] Specificity for GPBAR1 was tested in non-transfected CHO cells in the same assay as above.

human GPBAR1 receptor, sequence (Q8TDU6 whole entry): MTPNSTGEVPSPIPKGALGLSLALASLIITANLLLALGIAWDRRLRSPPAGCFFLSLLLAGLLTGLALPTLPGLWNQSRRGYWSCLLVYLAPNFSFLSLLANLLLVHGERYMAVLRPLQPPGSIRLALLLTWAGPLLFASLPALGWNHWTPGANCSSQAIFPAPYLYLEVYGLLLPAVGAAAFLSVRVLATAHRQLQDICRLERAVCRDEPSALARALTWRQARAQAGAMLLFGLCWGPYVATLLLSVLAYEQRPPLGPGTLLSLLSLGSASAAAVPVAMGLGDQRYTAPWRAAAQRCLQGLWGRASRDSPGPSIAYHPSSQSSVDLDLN

Structure (SMILES)	EC50 [nM]
Cc1c(F)cccc1-c1ccncc1N(C)C(=O)c1cc(C(F)(F)F)cc(S(C)(=O)=O)c1 [Example 295, N-[4-(3-Fluoro-2-methyl-phenyl)-pyridin-3-yl]-3-methanesulfonyl-N-methyl-5-trifluoromethyl-benzamide]	445
CN(C(=O)c1cc(C(F)(F)F)cc(S(C)(=O)=O)c1)c1cnccc1-c1cccnc1Cl [Example 313, N-(2-Chloro-[3,4′]bipyridinyl-3′-yl)-3-methanesulfonyl-N-methyl-5-trifluoromethyl-benzamide]	1220
COc1cc(F)ccc1-c1cc(C)ncc1N(C)C(=O)c1cc(C(F)(F)F)cc(S(=O)(=O)CCCCC(=O)NCC(=O)O)c1 [Example 317, [5-(3-{[4-(4-Fluoro-2-methoxy-phenyl)-6-methyl-pyridin-3-yl]-methyl-carbamoyl}-5-trifluoromethyl-benzenesulfonyl)-pentanoylamino]-acetic acid]	418
CN(C(=O)c1cc(O)cc(C(F)(F)F)c1)c1cnccc1-c1ccccc1Cl [Example 79, N-[4-(2-Chloro-phenyl)-pyridin-3-yl]-3-hydroxy-N-methyl-5-trifluoromethyl-benzamide]	1380
COc1cc(F)ccc1-c1ccncc1N(C)C(=O)c1cc(SCCNC(=O)OC(C)(C)C)cc(C(F)(F)F)c1 [Example 234, [2-(3-{[4-(4-Fluoro-2-methoxy-phenyl)-pyridin-3-yl]-methyl-carbamoyl}-5-trifluoromethyl-phenylsulfanyl)-ethyl]-carbamic acid tert-butyl ester]	405
O=C(NCCN(C(=O)c1cc(C(F)(F)F)cc(C(F)(F)F)c1)c1cnccc1-c1ccccc1Cl)OCc1ccccc1 [Example 125, (2-{(3,5-Bis-trifluoromethyl-benzoyl)-[4-(2-chloro-phenyl)-pyridin-3-yl]-amino}-ethyl)-carbamic acid benzyl ester]	1490
COC(=O)c1ccc(C)c(-c2ccncc2N(C)C(=O)c2cc(C(F)(F)F)cc(C(F)(F)F)c2)c1 [Example 83, 3-{3-[(3,5-Bis-trifluoromethyl-benzoyl)-methyl-amino]-pyridin-4-yl}-4-methyl-benzoic acid methyl ester]	376
COc1cc(F)ccc1-c1ccncc1N(C)C(=O)c1cc(SCCN)cc(C(F)(F)F)c1 [Example 237, 3-(2-Amino-ethylsulfanyl)-N-[4-(4-fluoro-2-methoxy-phenyl)-pyridin-3-yl]-N-methyl-5-trifluoromethyl-benzamide]	340
CN(C(=O)c1cc(C(F)(F)F)cc(S(C)(=O)=O)c1)c1cnccc1-c1ccccc1OCc1ccccc1 [Example 258, N-[4-(2-Benzyloxy-phenyl)-pyridin-3-yl]-3-methanesulfonyl-N-methyl-5-trifluoromethyl-benzamide]	1860
COc1ccc(-c2ccncc2N(C)C(=O)c2cc(C(F)(F)F)cc(C(F)(F)F)c2)cn1 [Example 99, N-(6-Methoxy-[3,4′]bipyridinyl-3′-yl)-N-methyl-3,5-bis-trifluoromethyl-benzamide]	2940
COc1cc(F)ccc1-c1ccncc1N(C)C(=O)c1cc(C(F)(F)F)cc(S(=O)(=O)CCCC(=O)O)c1 [Example 247, 4-(3-{[4-(4-Fluoro-2-methoxy-phenyl)-pyridin-3-yl]-methyl-carbamoyl}-5-trifluoromethyl-benzenesulfonyl)-butyric acid]	413
COC(=O)CN(C(=O)c1cc(C(F)(F)F)cc(S(C)(=O)=O)c1)c1cnccc1-c1cc(F)ccc1OC [Example 297, [[4-(5-Fluoro-2-methoxy-phenyl)-pyridin-3-yl]-(3-methanesulfonyl-5-trifluoromethyl-benzoyl)-amino]-acetic acid methyl ester]	521
COc1cc(F)ccc1-c1ccncc1N(Cc1cc(C)on1)C(=O)c1cc(C(F)(F)F)cc(S(C)(=O)=O)c1 [Example 231, N-[4-(4-Fluoro-2-methoxy-phenyl)-pyridin-3-yl]-3-methanesulfonyl-N-(5-methyl-isoxazol-3-ylmethyl)-5-trifluoromethyl-benzamide]	3500
CN(C(=O)c1cc(C(F)(F)F)cc(C(F)(F)F)c1)c1cnccc1-c1ccnc(Cl)c1F [Example 56, N-(2′-Chloro-3′-fluoro-[4,4′]bipyridinyl-3-yl)-N-methyl-3,5-bis-trifluoromethyl-benzamide]	430

These reach a lower EC50. Values come first.

EC50 [nM]	Structure (SMILES)
152	O=C(c1cc(C(F)(F)F)cc(C(F)(F)F)c1)N(CCF)c1cnccc1-c1ccccc1Cl [Example 110, N-[4-(2-Chloro-phenyl)-pyridin-3-yl]-N-(2-fluoro-ethyl)-3,5-bis-trifluoromethyl-benzamide]
31	COCCS(=O)(=O)c1cc(C(=O)N(C)c2cnccc2-c2ccc(F)cc2OC)cc(C(F)(F)F)c1 [Example 217, N-[4-(4-Fluoro-2-methoxy-phenyl)-pyridin-3-yl]-3-(2-methoxy-ethanesulfonyl)-N-methyl-5-trifluoromethyl-benzamide]
19	COc1cc(F)ccc1-c1ccncc1N(C)C(=O)c1cc(C(F)(F)F)cc(S(=O)(=O)N2CCC2)c1 [Example 249, 3-(Azetidine-1-sulfonyl)-N-[4-(4-fluoro-2-methoxy-phenyl)-pyridin-3-yl]-N-methyl-5-trifluoromethyl-benzamide]
111	CS(=O)(=O)CCN(C(=O)c1cc(C(F)(F)F)cc(C(F)(F)F)c1)c1cnccc1-c1ccccc1F [Example 191, N-[4-(2-Fluoro-phenyl)-pyridin-3-yl]-N-(2-methanesulfonyl-ethyl)-3,5-bis-trifluoromethyl-benzamide]
85	COc1cc(F)ccc1-c1ccncc1N(C)C(=O)c1cc(C2COC2)cc(C(F)(F)F)c1 [Example 235, N-[4-(4-Fluoro-2-methoxy-phenyl)-pyridin-3-yl]-N-methyl-3-oxetan-3-yl-5-trifluoromethyl-benzamide]
237	CS(=O)(=O)CCN(C(=O)c1cc(C(F)(F)F)cc(C(F)(F)F)c1)c1cnccc1-c1ccccc1Cl [Example 112, N-[4-(2-Chloro-phenyl)-pyridin-3-yl]-N-(2-methanesulfonyl-ethyl)-3,5-bis-trifluoromethyl-benzamide]
143	CC1CCCCN1c1ccncc1N(C)C(=O)c1cc(C(F)(F)F)cc(C(F)(F)F)c1 (stereo not shown) [Example 20, N-Methyl-N-(2-methyl-3,4,5,6-tetrahydro-2H-[1,4′]bipyridinyl-3′-yl)-3,5-bis-trifluoromethyl-benzamide]
11	COc1cc(F)ccc1-c1ccncc1N(C)C(=O)c1cc(C(F)(F)F)cc(C(F)(F)F)c1 [Example 38, N-[4-(4-Fluoro-2-methoxy-phenyl)-pyridin-3-yl]-N-methyl-3,5-bis-trifluoromethyl-benzamide]
56	Cc1ccccc1-c1ccncc1N(C)C(=O)c1cc(Cl)nc(C(F)(F)F)c1 [Example 171, 2-Chloro-N-methyl-N-(4-o-tolyl-pyridin-3-yl)-6-trifluoromethyl-isonicotinamide]
90	Cc1ccccc1-c1ccncc1N(CC(F)(F)F)C(=O)c1cc(C(F)(F)F)nc(C(F)(F)F)c1 [Example 150, N-(4-o-Tolyl-pyridin-3-yl)-N-(2,2,2-trifluoro-ethyl)-2,6-bis-trifluoromethyl-isonicotinamide]
53	COc1cc(F)ccc1-c1ccncc1N(C)C(=O)c1cc(C(F)(F)F)cc(S(=O)(=O)C2COC2)c1 [Example 255, N-[4-(4-Fluoro-2-methoxy-phenyl)-pyridin-3-yl]-N-methyl-3-(oxetane-3-sulfonyl)-5-trifluoromethyl-benzamide]
53	COC(=O)CN(C(=O)c1cc(C(F)(F)F)nc(C(F)(F)F)c1)c1cnccc1-c1cc(F)c(F)cc1OC [Example 173, {(2,6-Bis-trifluoromethyl-pyridine-4-carbonyl)-[4-(4,5-difluoro-2-methoxy-phenyl)-pyridin-3-yl]-amino}-acetic acid methyl ester]
206	COc1ncccc1-c1ccncc1N(CC(N)=O)C(=O)c1cc(C(F)(F)F)nc(C(F)(F)F)c1 [Example 183, N-(2-Amino-2-oxoethyl)-N-(2-methoxy-3,4′-bipyridin-3′-yl)-2,6-bis(trifluoromethyl)-isonicotinamide]
30	COc1ncc(F)cc1-c1ccncc1N(C)C(=O)c1cc(C(F)(F)F)cc(C(F)(F)F)c1 [Example 44, N-(5-Fluoro-2-methoxy-[3,4′]bipyridinyl-3′-yl)-N-methyl-3,5-bis-trifluoromethyl-benzamide]
11	CN(C(=O)c1cc(C(F)(F)F)cc(C(F)(F)F)c1)c1cnccc1-c1ccccc1 [Example 322, N-Methyl-N-(4-phenyl-pyridin-3-yl)-3,5-bis-trifluoromethyl-benzamide]
29	CN(C(=O)c1cc(C(F)(F)F)cc(C(F)(F)F)c1)c1cnccc1-c1ccccc1OC(F)(F)F [Example 31, N-Methyl-N-[4-(2-trifluoromethoxy-phenyl)-pyridin-3-yl]-3,5-bis-trifluoromethyl-benzamide]
207	Cc1ccccc1-c1ccncc1N(C)C(=O)c1cc(Cl)cc(OC(F)(F)F)c1 [Example 100, 3-Chloro-N-methyl-N-(4-o-tolyl-pyridin-3-yl)-5-trifluoromethoxy-benzamide]
22	Cc1ccccc1-c1ccncc1N(C)C(=O)c1cc(Cl)cc(C(F)(F)F)c1 [Example 109, 3-Chloro-N-methyl-N-(4-o-tolyl-pyridin-3-yl)-5-trifluoromethyl-benzamide]
190	COc1cc(F)ccc1-c1ccncc1N(C)C(=O)c1cc(SCCNS(N)(=O)=O)cc(C(F)(F)F)c1 [Example 261, N-[4-(4-fluoro-2-methoxyphenyl)pyridin-3-yl]-N-methyl-3-{[2-(sulfamoylamino)ethyl]-sulfanyl}-5-(trifluoromethyl)benzamide]
93	COc1cc(F)ccc1-c1ccncc1N(C)C(=O)c1cc(Cl)cc(OC(F)(F)F)c1 [Example 227, 3-Chloro-N-[4-(4-fluoro-2-methoxy-phenyl)-pyridin-3-yl]-N-methyl-5-trifluoromethoxy-benzamide]
